Test results taken from EP0563734A1, “9-fluoro-7-oxo-7H-pyrido(1,2,3-de)(1,4)benzoxazine carboxylic acids and esters and their use as antiviral agents” (BAYER AG, priority 1992, dated 1993).

What follows are compounds tested on Hepatitis B Virus (assay: HBV test system: HBV-DNA content in the supernatant of HBV-DNA-transfected hepatoma cells (HEP G2.2.15), after PEG precipitation, with a non-radioactive HBV genomic DNA probe). Conditions: HepG2.2.15, 50%ige Hemmung der HBV-DNA Konzentration im Überstand, read-out: IC₅₀.
Type: cell-based
Description: Der Nachweis wurde in mit Hepatitis B Virus DNA transfizierten Hepatomzellen (HEP G2.2.15) geführt. Die Ergebnisse der unten aufgeführten Beispiele wurden zu dem in der folgenden Literaturangabe [Sells, M.A.; Chen, M.L., Acs, G., Proc. Natl. Acad. Sci. USA S. 1005 - 1009, Vol. 84 (1987] beschriebenen HBV-Testsystem ermittelt: Transfizierte Hepatomzellen (HEP G2.2.15) wurden mit verschiedenen Konzentrationen der jeweiligen Verbindung inkubiert. Durch Behandlung der transfizierten Hepatomzellinie HEP G2.2.15 mit den erfindungsgemäßen Verbindungen konnte die Reduktion der virusspezifischen HBV-DNA im Überstand sowie eine Reduktion des HBsAg Spiegels gezeigt werden. Es wurde weiter gefunden, daß die erfindungsgemäßen Verbindungen zu einer Reduktion der replikativen Intermediate der Hepatitisviren führen. Im Überstand der Zellkulturen wurde nach PEG Fällung der Gehalt an HBV-DNA bestimmt. Dies geschah unter Verwendung einer nicht radioaktiv markierten HBV genomischen DNA Probe [Pauly, P., 1982, Ph. D. Thesis, University of Göttingen, F.R.G.; Köchel et al., 1990, EMBL, Accession-Nr. X 51790]. Gleichzeitig erfolgte der Nachweis der Beeinflussung der HBsAg Bildung mittels eines kommerziell erhältlichen ELISA Tests. Die angegebenen IC₅₀-Werte beziehen sich auf die Substratkonzentrationen, die unter den oben aufgeführten Testbedingungen eine 50%ige Hemmung der HBV-DNA Konzentration im Überstand bewirken. Tabelle A
Gleichzeitig erfolgte die Bestimmung des möglicherweise vorhandenen cytotoxischen Einflusses der erfindungsgemäßen Verbindungen mittels Kristallviolettfärbung bzw. über den Einbau von radioaktiv markiertem Thymidin in die zelluläre DNA.

SMILES | IC50 [µM]
CC1=COc2c(N3CCN(C4CC4)CC3)c(F)cc3c(=O)c(C(=O)O)cn1c23 [Beispiel 9, 10-(4-Cyclopropyl-piperazin-1-yl)-9-fluor-3-methyl-7-oxo-7H-pyrido-[1,2,3-de][1,4]benzoxazin-6-carbonsäure] | 0.1
CCOC(=O)C1=Cn2cc(C(=O)OCC)c(=O)c3cc(F)c(F)c(c32)O1 [Beispiel I, 9,10-Difluor-2-ethoxycarbonyl-7-oxo-7H-pyrido[1,2,3-de][1,4]benzoxazin-6-carbonsäureethylester] | 0.5
CCOC(=O)c1cn2c3c(c(F)c(F)cc3c1=O)OC(C(C)(C)CCCOc1ccccc1)=C2 [Beispiel VIII, 9,10-Difluor-2-(2-methyl-5-phenoxy-2-pentyl)-7-oxo-7H-pyrido[1,2,3-de][1,4]-benzoxazin-6-carbonsäureethylester] | 0.5
